The text below walks through data of patent US6903101B1, “Substituted pyridazines and fused pyridazines with angiogenesis inhibiting activity” (Bayer Pharmaceuticals Corporation, priority 2000, dated 2005).

Data set [1] deals with T1, full length KDR receptor in NIH3T3 cells (Homo sapiens, UniProt P35968).
T1 construct: NIH3T3 cells expressing the full length KDR receptor were grown in DMEM; expressed in transfected cells; host or cells: NIH3T3 cells (G418 selection)
Briefly: Cell mechanistic assay - Inhibition of 3T3 KDR phosphorylation. To be noted: NIH3T3 cells expressing KDR, VEGF (30 ng/ml) stimulation, receptor phosphotyrosine ELISA. The format is cell-based. Here is the method:
Cell mechanistic assay-Inhibition of 3T3 KDR phosphorylation:
NIH3T3 cells expressing the full length KDR receptor were grown in DMEM (Life Technologies, Inc., Grand Island, N.Y.) supplemented with 10% newborn calf serum, low glucose, 25 mM/L sodium pyruvate, pyridoxine hydrochloride and 0.2 mg/ml of G418 (Life Technologies Inc., Grand Island, N.Y.). The cells were maintained in collagen I-coated T75 flasks (Becton Dickinson Labware, Bedford, Mass.) in a humidified 5% CO2 atmosphere at 37° C.
Fifteen thousand cells were plated into each well of a collagen I-coated 96-well plate in the DMEM growth medium. Six hours later, the cells were washed and the medium was replaced with DMEM without serum. […]
To assess receptor phosphorylation, 100 microliters of each cell lysate was added to the wells of an ELISA plate precoated with 300 ng of antibody C20 (Santa Cruz Biotechnology, Inc., Santa Cruz, Calif.). […] Wells were washed and phosphotyrosine was quantitated by addtion of 100 μl per well of 3,3′,5,5′ tetramethylbenzidine (Kirkegaard and Perry, TMB Microwell 1 Component peroxidase substrate) solution. […]
Optical densities (OD) were determined spectrophotometrically at 450 nm in a 96-well plate reader (SpectraMax 250, Molecular Devices). Background (no VEGF added) OD values were subtracted from all ODs and percent inhibition was calculated according to the equation: [formula] […]

For a further data set, the target named is T2, KDR kinase domain (Homo sapiens, UniProt P35968).
T2 construct: The cytosolic kinase domain of KDR kinase was expressed as a 6 His fusion protein in Sf9 insect cells; 6 His; made in house; host or cells: Sf9 insect cells
Nature of the data set: KDR Assay (kinase ELISA, poly(Glu4;Tyr1) phosphorylation). Format: biochemical. To be noted: 3.3 μM ATP, 60 minutes room temperature. The protocol:
The cytosolic kinase domain of KDR kinase was expressed as a 6 His fusion protein in Sf9 insect cells. The KDR kinase domain fusion protein was purified over a Ni++chelating column. Ninety-six well ELISA plates were coated with 5 μg poly(Glu4;Tyr1) (Sigma Chemical Co., St Louis, Mo.) in 100 μl HEPES buffer (20 mM HEPES, pH 7.5, 150 mM NaCl, 0.02% Thimerosal) at 4° overnight. Before use, the plate was washed with HEPES, NaCl buffer and the plates were blocked with 1% BSA, 0.1% Tween 20 in HEPES, NaCl buffer.
Test compounds were serially diluted in 100% DMSO from 4 mM to 0.12 μM in half-log dilutions. These dilutions were further diluted twenty fold in H2O to obtain compound solutions in 5% DMSO. […]
The assay was incubated with test compound or vehicle alone with gentle agitation at room temperature for 60 minutes. […] PY/anti-PY complexes were detected with an anti-mouse IgG/HRP conjugate (Amershamn International plc, Buckinghamshire, England). Phosphotyrosine was quantitated by incubating with 100 μl 3, 3′, 5, 5′ tetramethylbenzidine solution (Kirkegaard and Perry, TMB Microwell 1 Component peroxidase substrate). […]
Optical densities were determined spectrophotometrically at 450 nm in a 96-well plate reader, SpectraMax 250 (Molecular Devices). Background (no ATP in assay) OD values were subtracted from all ODs and the percent inhibition was calculated according to the equation: [formula] […]

The structures appear in SMILES notation. Counter-ions that a name gives are not always drawn.

T2 sequence (P35968 834-1162 limits assumed): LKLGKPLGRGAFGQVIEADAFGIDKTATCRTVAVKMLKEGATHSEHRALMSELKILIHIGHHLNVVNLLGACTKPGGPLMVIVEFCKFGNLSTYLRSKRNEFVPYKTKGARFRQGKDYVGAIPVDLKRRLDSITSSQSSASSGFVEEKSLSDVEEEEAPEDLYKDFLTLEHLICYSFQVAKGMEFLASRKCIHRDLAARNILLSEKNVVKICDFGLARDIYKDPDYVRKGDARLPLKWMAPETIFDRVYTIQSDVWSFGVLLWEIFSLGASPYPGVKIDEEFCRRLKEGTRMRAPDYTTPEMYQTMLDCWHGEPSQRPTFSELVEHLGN
T1 sequence (P35968 20-1356): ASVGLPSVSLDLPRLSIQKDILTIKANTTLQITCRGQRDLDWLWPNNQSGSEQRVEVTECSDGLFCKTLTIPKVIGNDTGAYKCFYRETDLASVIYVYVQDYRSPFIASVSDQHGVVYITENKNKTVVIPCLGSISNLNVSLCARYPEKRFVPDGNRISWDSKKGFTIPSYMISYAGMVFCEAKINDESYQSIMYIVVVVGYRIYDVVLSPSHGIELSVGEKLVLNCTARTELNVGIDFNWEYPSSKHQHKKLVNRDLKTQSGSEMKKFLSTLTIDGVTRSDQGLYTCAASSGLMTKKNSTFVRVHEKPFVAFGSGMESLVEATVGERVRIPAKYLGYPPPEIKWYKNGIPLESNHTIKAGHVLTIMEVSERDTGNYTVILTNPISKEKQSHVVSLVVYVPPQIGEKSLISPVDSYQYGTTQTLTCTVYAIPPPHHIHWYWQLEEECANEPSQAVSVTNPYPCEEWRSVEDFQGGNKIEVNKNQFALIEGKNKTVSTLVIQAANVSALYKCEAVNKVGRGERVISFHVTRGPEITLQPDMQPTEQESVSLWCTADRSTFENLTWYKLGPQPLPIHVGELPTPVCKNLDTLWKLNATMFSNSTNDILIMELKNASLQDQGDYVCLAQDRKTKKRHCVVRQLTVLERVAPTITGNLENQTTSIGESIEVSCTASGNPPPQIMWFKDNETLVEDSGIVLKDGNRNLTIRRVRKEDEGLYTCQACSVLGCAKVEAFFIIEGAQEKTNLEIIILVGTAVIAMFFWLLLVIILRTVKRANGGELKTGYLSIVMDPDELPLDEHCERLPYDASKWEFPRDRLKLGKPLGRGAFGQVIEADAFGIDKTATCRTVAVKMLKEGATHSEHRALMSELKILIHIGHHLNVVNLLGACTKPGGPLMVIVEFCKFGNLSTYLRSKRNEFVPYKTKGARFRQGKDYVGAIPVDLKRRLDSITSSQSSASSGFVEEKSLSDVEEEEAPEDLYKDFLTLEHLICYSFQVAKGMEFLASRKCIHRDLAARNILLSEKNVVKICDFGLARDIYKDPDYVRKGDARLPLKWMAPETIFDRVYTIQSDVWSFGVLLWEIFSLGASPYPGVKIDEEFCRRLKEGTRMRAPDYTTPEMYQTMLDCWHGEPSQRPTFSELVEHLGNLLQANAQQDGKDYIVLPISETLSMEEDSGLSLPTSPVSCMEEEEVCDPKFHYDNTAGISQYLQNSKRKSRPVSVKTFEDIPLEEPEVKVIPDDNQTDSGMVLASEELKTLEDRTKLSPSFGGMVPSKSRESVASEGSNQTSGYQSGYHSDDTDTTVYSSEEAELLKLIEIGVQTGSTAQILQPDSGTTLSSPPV

For `CNC(=O)c1cc(Cc2nnc(Nc3ccc(Cl)cc3)c3ccccc23)ccn1` (as salt: hydrochloride) [Example 11, 4-[4-(4-Chlorophenylamino)phthalazin-1-ylmethyl]pyridin-2-yl carboxylic acid methylamide dihydrochloride], the melting point was 255 °C (dec.).

With `NC(=O)c1cc(COc2nnc(Nc3ccc(Cl)cc3)c3ccccc23)ccn1` (as salt: hydrochloride) [Example 15, 4-[4-(4-Chlorophenylamino)phthalazin-1-yloxymethyl]pyridin-2-yl carboxylic acid amide dihydrochloride], the melting point lay in the range of 143 to 145.2 °C.

`CNC(=O)c1cc(Cc2nnc(Nc3ccc(Cl)cc3)c3ccccc23)ccn1` (as salt: methanesulfonate) [Example 12, 4-[4-(4-Chlorophenylamino)phthalazin-1-ylmethyl]pyridin-2-yl carboxylic acid methylamide dimethanesulfonate] showed a melting point of 245 to 249 °C.

For `NC(=O)c1cc(Cc2nnc(Nc3ccc(Cl)cc3)c3ccccc23)ccn1` (as salt: methanesulfonate) [Example 14, 4-[4-(4-Chlorophenylamino)phthalazin-1-ylmethyl]pyridin-2-yl carboxylic acid amide dimethanesulfonate], the melting point lay within 156 to 161 °C. `NC(=O)c1cc(COc2nnc(Nc3ccc(Cl)cc3)c3ccccc23)ccn1` (as salt: methanesulfonate) [Example 16, 4-[4-(4-Chlorophenylamino)phthalazin-1-yloxymethyl]pyridin-2-yl carboxylic acid amide dimethanesulfonate] had a melting point of 75 to 80 °C.

On to `Cl.Cl.NC(=O)c1cc(Cc2nnc(Nc3ccc(Cl)cc3)c3ccccc23)ccn1` [Example 13, 4-[4-(4-Chlorophenylamino)phthalazin-1-ylmethyl]pyridin-2-yl carboxylic acid amide dihydrochloride], for which the melting point is 180 to 198 °C. As for `Clc1ccc(Nc2ccc(OCc3ccncc3)nn2)cc1` [Example 21], the values for the IC50 (in data set [1]; against KDR kinase domain) were more than 50 nM and more than 1000 nM, respectively. `N#CC(c1ccncc1)c1nnc(Nc2ccc3c(c2)CCC3)c2ccccc12` (stereo not shown) [Example 22, 1-(indan-5-ylamino)-4-(4-pyridylcyanomethyl)phthalazine] yielded a melting point of 122 to 123 °C. The same measure, in the same setting: the value for `c1ccc2c(Nc3ccc4ncsc4c3)nnc(Cc3ccncc3)c2c1` [Example 23] was 163 to 164 °C.

A word on the melting point: it is the temperature, or range, at which the solid turns liquid. In general, IC50 refers to the concentration at which inhibition is half-maximal. Read a high IC50 as a need for much substance.
